The source of these data is patent US11198869B2, “Angelman syndrome antisense treatment” (The Texas A&M University System, priority 2017, dated 2021).

For this data set, the system named is UBE3A-AS. As to the kind of experiment: UBE3A-AS steady state RNA dose response in Angelman syndrome iPSC-derived neurons. It counts as cell-based, human. Particulars: for IC50: six days following treatment, 10-point dose curve, read-out: potency (IC50), UBE3A-AS. On the procedure: The steady state RNA levels of target transcripts were measured using TaqMan quantitative reverse-transcription PCR (qRT-PCR) assays. Total reaction volume was 10 uL, including 2 μl of cDNA, 1× Gene Expression Master mix (4369016, Thermo Fisher Scientific, Waltham, Mass.), and 1× TaqMan primer assay (Thermo Fisher Scientific). Cycling conditions were 2 minutes at 50° C., 10 minutes at 95° C., and 40 cycles of 15 seconds at 95° C. and 1 minute at 60° C., with readings taken at the 60° C. step of every cycle. Reactions were run on a BIO-RAD T1000 CFX96 thermocycler (Bio-Rad Laboratories, Hercules Calif.), with internal control (PPIA, Hs99999904_m1, Thermo Fisher Scientific) and target [UBE3A-AS, Hs01372957_m1; SNORD116-11, Hs04275268_gH; SNORD115, Hs04275288_gH; IPW, Hs03455409_s1; SNORD109A/B, AP47WVR (Thermo Fisher Scientific); UBE3A: forward […] (SEQ ID NO:500); reverse: […] (SEQ ID NO:501); and, probe: […] (SEQ ID NO:502)] reactions performed together. Data was retrieved and analyzed with the BIORAD CFX Maestro software (Bio-Rad Laboratories). Samples with internal control Cq values ≥30 were filtered. Quality of data was visually inspected to identify discrepancies between technical and/or plate replicates. Measurements for inferential statistics and descriptive statistics consist of ΔΔCq values (2^−ΔΔCq=2^−(Cq[target]−Cq[internal control])−(Cq[target]−Cq[internal control])).
The potencies of […] and ASO-4.4.PS.L were then examined in iPSC derived-neurons from an Angelman syndrome patient with a maternal derived deletion of the 15q11-q13 region. Induced pluripotent stem cells were differentiated into neurons and then treated with a 10-point ½ log dose response curve of ASO-6.1.PO-1.O and ASO-4.4.PS.L [1 nM, 3 nM, 10 nM, 30 nM, 100 nM, 300 nM, 1 μM, 3 μM, 10 μM, and 30 μM (n=3)]. Six days following treatment, the steady state RNA levels of UBE3A-AS were measured and dose response curves were fitted as described above (FIG. 9A). […] The Emax values were similar (30 μM: ASO-4.4.PS.L=0.01±0.0007; ASO-6.1.PO-1.O=0.05±0.004) but not considered equivalent due to the confidence intervals [ASO-6.1.PO-1.O/ASO-4.4.PS.L Emax ratio: =−9.1 (Lower confidence limit=−224; Upper confidence limit=205)].
Angelman syndrome induced pluripotent stem cells derived neurons Angelman syndrome iPS cells (AG1-0 iPSCs) (ECN001, Kerafast, Boston, Mass.) were co-cultured on irradiated murine embryonic fibroblasts in human embryonic stem cell medium [DMEM/F12 (11330-057, Gibco Biosciences, Dublin, Ireland), 20% Knockout Serum Replacement (10828-028, Thermo Fisher Scientific), 1× Non-essential amino acids, 2 mM L-glutamine, […] 2-Mercaptoethanol, and 4 μg/mL basic Fibroblast Growth Factor]. For the first passage, AG1-0 cells were passaged according to the product manual for PluriSTEM Human ES/iPS Medium (SCM130, Millipore Sigma, Burlington, Mass.), which is feeder-free and utilizes Dispase II (SCM133, Millipore Sigma) to dissociate cells. Matrigel™ hESC-qualified Matrix (354277, Corning BD Biosciences, Corning, N.Y.) was used as an extracellular matrix. At the second passage, the matrix was switched to vitronectin (CC130, Millipore Sigma). During subsequent passages, areas of differentiation were manually removed until differentiated cells represented approximately <5% of the colonies. After four subsequent passages, AG1-0 cells were differentiated using the Millipore ES/iPS Neurogenesis Kit (SCR603, SCM110, and SCM111) but lacking vitronectin as an extracellular matrix. The initial passage was performed with EZ-LiFT (SCM139, Millipore Sigma) to obtain high quality iPS cells. Neural progenitor cells were frozen at stage zero (P0) and subsequently thawed for differentiation. Differentiation was performed on sterile culture plates coated with poly-D-lysine (10 μg/mL) and laminin [10 μg/mL (23017-015, Gibco) in differentiation medium (SCM111) for 10 days of differentiation. […]

Consider “A^L*G^L*A^L*a*t*g*g*c*a*c*a*t*c*t*5mC^L*T^L*T^L*G^L (NNNATGGCACATCTNNNN; LNA gapmer, PS, 5-methylcytosine, chemistry not fully specified) [ASO-4.4.PS.L]”, for which the “fold more potent than ASO-6.1.PO-1.O” value is given as “approximately 2.7 fold”; the “Emax, normalized UBE3A-AS RNA level at 30 μM” value amounted to 0.01±0.0007; the IC50 – broadly, the concentration at which inhibition is half-maximal – was 437 nM.

With “C^O*U^O*G^O*G^O-t*g*t*c*a*a*c*a*a*g-C^O*C^O*A^O*A^o [ASO-6.1.PO-1.O]”, the “Emax, normalized UBE3A-AS RNA level at 30 μM” value came to 0.05±0.004 and the IC50 turned out to be 1220 nM. In addition, under “equivalence test”, the “ASO-6.1.PO-1.O/ASO-4.4.PS.L Emax ratio” value is reported as −9.1 and the “ASO-6.1.PO-1.O/ASO-4.4.PS.L IC50 ratio” value is on record as 0.96.
